In assay [1] the test system is eIF4E (II-AA mutant)–eIF4G complex. Put plainly: Competition assay, displacement of GST-eIF4G from preassembled eIF4E (II-AA)–eIF4G complexes. Type of assay: biochemical, Drosophila melanogaster. The following applies: Fig. 4; 2 μM complex, GB1-fused competitor, 20 min at 4 °C, Strep-Tactin pull down; n=2. On the procedure:
To obtain the preassembled eIF4E–eIF4G complexes used in Figs 4 and 5d–g, full-length eIF4E (WT or the II-AA mutant) containing an N-terminal SNH-tag was coexpressed with an N-terminal GST-tagged eIF4G (residues 578–650). The cells were lysed by sonication in lysis buffer containing 50 mM HEPES (pH 7.2), 300 mM NaCl and 2 mM DTT. The complexes were purified from the cleared lysates using Protino Glutathione Agarose 4B beads (Machery-Nagel). The complex was further purified using a heparin column (HiTrap Heparin HP 5 ml, GE Healthcare) and a final size exclusion chromatography (Superdex 200 16/60, GE Healtcare) in 20 mM HEPES (pH 7.2), 200 mM NaCl and 2 mM DTT.
For the titration experiments shown in Fig. 4, 2 μM of purified complexes containing SHN-eIF4E (WT or II-AA mutant) bound to GST-eIF4G (residues 578–650) were incubated with increasing amounts (2–20 μM) of purified competitor proteins for 20 min at 4 °C. The eIF4E-bound proteins were recovered via Strep-Tactin Sepharose pull down and eluted with lysis buffer containing 2.5 mM desthiobiotin. The proteins were analyzed by 15% SDS–PAGE followed by staining with Coomassie blue staining. […]
presence of MBP (negative control), increasing amounts of 4E-BP peptides or eIF4G-GB1 in […]
The amounts of GST-eIF4G bound to eIF4E in each experimental condition were determined using the Image J software after Coomassie blue staining. To rule out the possibility that changes in the amount of GST-eIF4G bound to eIF4E resulted from variations in the loading volume, all values were normalized to the levels of SHN-eIF4E present in each condition. These values were set to 100 in the presence of MBP.
Each experiment was repeated at least twice. (e,f) Quantification of the experiments shown in Fig. 5d–g. The amounts of GST-eIF4G remaining bound to eIF4E in the presence of MBP, 4E-BP peptides or eIF4G-GB1 were normalized to those of eIF4E and set to 100 in the presence of MBP. […]
micrographs of fixed S2 cells expressing HA-4E-T and GFP-Tral. The localization of HA-4E-T was determined by indirect immunofluorescence using an anti-HA antibody. […]

The next assay relates to endogenous eIF4E. Put plainly: Coimmunoprecipitation / m7GTP pull-down with endogenous eIF4E in S2 cell lysates. Type of assay: cell-based, Drosophila melanogaster. The following applies: western blot. Summed up:
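S2 cell lysates expressing HA-tagged 4E-BPs (CUP, Thor, 4E-T), eIF4G or mutants, immunoprecipitated with anti-eIF4E or anti-HA antibodies, or pulled down with m7GTP beads for 1 h at 4 °C. Washes in NET buffer (50 mM Tris pH 7.4, 150 mM NaCl, 1 mM EDTA, 0.1% Triton X-100). Bound proteins detected by anti-HA/anti-eIF4E western blot; pre-immune serum and HA-MBP as negative controls.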
A general note: In western blotting, separated proteins are transferred to a membrane and probed.

In assay [2] the test system is eIF4E II-AA mutant (full length). Put plainly: GST/MBP pull-down of full-length eIF4E II-AA mutant, coexpressed in E. coli. The following applies: recombinant CUP (311–440), Thor (full length), 4E-T (1–58) or eIF4G (578–650), WT or mutant, SDS–PAGE. Format: binding, Drosophila melanogaster. On the procedure: For the pull-down assays shown in Fig. 3 and Supplementary Fig. 6a, the full-length His6- or SHN-tagged eIF4E (WT or II-AA mutant) was coexpressed with GST or MBP-tagged protein fragments, including CUP (residues 311–440), Thor (full length), 4E-T (residues 1–58) or eIF4G (residues 578–650) in E. coli BL21 (DE3) STAR cells in autoinducing medium[44] overnight at 20 °C. The cells were resuspended in lysis buffer (20 mM Tris–HCl (pH 7.5), 100 mM NaCl, 1 mM DTT) supplemented with EDTA-free protease inhibitor (Roche) and lysed by sonication. The cleared lysates were incubated for 1 h with 20 μl of Protino Glutathione Agarose 4B beads (Macherey-Nagel) or amylose resin (New England Biolabs). The beads were washed three times with lysis buffer, and the bound proteins were eluted with lysis buffer containing 25 mM L-glutathione or 25 mM maltose for 15 min. The proteins were analyzed by 10–15% SDS–PAGE followed by Coomassie blue staining.

No end group written: not given here.

The results in this text go back to article PMC4164784, “4E-BPs require non-canonical 4E-binding motifs and a lateral surface of eIF4E to repress translation” (Nature Communications, 2014).

For “4E-T C+NC: 4E-T residues 9–44, eIF4E-binding region short, C-terminal GB1”, in assay [1], the “displacement of eIF4G from eIF4E II-AA–eIF4G complex (in words)” value (“displacement of eIF4G” below) was “did not efficiently displace eIF4G”. For “4E-T C: 4E-T residues 9–21, canonical motif”, the “interaction with endogenous eIF4E (in words)” value in the assay on endogenous eIF4E is listed as “drastic reduction”. In addition, the “binding to eIF4E II-AA mutant (in words)” value in assay [2] is recorded as “reduced binding”. Regarding “CUP C+NC: CUP residues 325–376, eIF4E-binding region short, C-terminal GB1 (KSYTRSRLMDIRNGMFNALMHRSKESFVMPRIATCDDIELEGRLRRMNIWRT-GB1; UniProt Q9VMA3 325-376, looked up, fragment)”, the “displacement of eIF4G” value in assay [1] is “did not efficiently displace eIF4G”.

“Thor C+NC: Thor residues 50–83, eIF4E-binding region short, C-terminal GB1 (TKLIYERAFMKNLRGSPLSQTPPSNVPSCLLRGT-GB1; UniProt Q9XZ56 50-83, looked up, fragment)”: in assay [1], the “displacement of eIF4G” value is recorded as “did not efficiently displace eIF4G”. With “Thor C: Thor residues 50–63, canonical motif”, the “interaction with endogenous eIF4E (in words)” value with endogenous eIF4E is reported as “disrupted the interaction with eIF4E”. Moreover, the “binding to eIF4E II-AA mutant (in words)” value in assay [2] is on record as “strongly impaired in their binding”.
